Holding throughout (format): functional, cell-based
The target in data set [1] is T1, Solute carrier family 15 member 1 (Homo sapiens, UniProt P46059).
T1 sequence (P46059 whole entry): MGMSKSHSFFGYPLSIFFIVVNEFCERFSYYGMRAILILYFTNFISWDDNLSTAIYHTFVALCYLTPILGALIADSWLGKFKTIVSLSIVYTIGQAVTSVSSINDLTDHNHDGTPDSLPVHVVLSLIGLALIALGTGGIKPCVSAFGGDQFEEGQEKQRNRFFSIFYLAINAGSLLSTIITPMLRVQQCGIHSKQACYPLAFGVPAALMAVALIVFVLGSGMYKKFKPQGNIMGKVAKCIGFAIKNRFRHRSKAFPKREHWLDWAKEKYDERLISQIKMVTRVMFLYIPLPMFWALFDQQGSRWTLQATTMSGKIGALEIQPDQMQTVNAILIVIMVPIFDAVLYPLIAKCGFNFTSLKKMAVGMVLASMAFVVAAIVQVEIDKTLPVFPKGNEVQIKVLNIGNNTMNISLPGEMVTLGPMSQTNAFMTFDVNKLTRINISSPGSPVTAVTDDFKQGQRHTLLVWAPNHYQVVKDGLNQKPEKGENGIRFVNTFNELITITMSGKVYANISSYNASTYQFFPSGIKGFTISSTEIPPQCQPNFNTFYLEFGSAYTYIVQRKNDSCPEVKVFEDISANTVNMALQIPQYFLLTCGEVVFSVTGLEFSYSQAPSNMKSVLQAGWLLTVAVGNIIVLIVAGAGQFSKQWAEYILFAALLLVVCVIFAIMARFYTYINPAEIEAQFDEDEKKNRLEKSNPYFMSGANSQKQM
The data set can be described thus: TP_TRANSPORTER: inhibition of Gly-Sar uptake in PEPT1-expressing HeLa cells.

The target of data set [2] is T2, Solute carrier family 15 member 2 (Rattus norvegicus, UniProt Q63424).
T2 sequence (Q63424 whole entry): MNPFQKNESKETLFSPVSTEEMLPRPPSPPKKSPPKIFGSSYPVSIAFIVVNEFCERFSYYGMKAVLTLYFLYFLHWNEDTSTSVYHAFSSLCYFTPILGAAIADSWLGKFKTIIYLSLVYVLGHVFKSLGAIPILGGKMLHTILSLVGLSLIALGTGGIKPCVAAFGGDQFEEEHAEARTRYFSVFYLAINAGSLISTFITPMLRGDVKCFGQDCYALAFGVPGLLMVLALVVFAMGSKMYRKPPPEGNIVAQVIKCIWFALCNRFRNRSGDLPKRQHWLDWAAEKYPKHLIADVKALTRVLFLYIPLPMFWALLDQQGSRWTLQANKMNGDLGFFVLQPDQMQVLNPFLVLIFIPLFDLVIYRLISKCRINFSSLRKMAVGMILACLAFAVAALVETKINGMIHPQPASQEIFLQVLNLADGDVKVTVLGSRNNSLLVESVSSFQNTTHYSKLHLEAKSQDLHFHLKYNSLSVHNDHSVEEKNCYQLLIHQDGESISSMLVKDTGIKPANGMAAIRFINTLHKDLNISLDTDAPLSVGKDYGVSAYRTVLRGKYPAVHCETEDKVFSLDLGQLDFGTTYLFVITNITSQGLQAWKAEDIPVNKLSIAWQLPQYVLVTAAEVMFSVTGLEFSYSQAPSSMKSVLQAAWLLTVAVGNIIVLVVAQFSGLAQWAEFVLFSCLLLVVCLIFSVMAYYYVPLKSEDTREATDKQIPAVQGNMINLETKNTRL
Nature of the data set: TP_TRANSPORTER: inhibition of Gly-Sar uptake in PEPT2-expressing HeLa cells.

For data set [3], the target named is T1, Solute carrier family 15 member 1. The data set can be described thus: TP_TRANSPORTER: inhibition of Gly-Sar uptake in Caco-2 cells.
Data set [4] concerns the target T2, Solute carrier family 15 member 2. The data set can be described thus: TP_TRANSPORTER: inhibition of Gly-Sar uptake in SKPT cells.
Substrate in data set [5]: CN(CC(=O)O)C(=O)CN
The data set can be described thus: TP_TRANSPORTER: uptake in PEPT1-expressing HeLa cells.

Substrate in data set [6]: CN(CC(=O)O)C(=O)CN
Nature of the data set: TP_TRANSPORTER: uptake in Caco-2 cells.

Substrate in data set [7]: CN(CC(=O)O)C(=O)CN
Nature of the data set: TP_TRANSPORTER: uptake in SKPT cells.

Substrate in data set [8]: CN(CC(=O)O)C(=O)CN
Nature of the data set: TP_TRANSPORTER: uptake in PEPT2-expressing HeLa cells.

A word on the Ki: it is a dissociation constant, usually derived from enzyme kinetics or from competition with a known ligand. A high value points to weaker binding. With `CC(C)[C@H](N)C(=O)OCCOCn1cnc2c(=O)[nH]c(N)nc21` [VALACYCLOVIR], the Ki came to 740 µM in data set [1], 390 µM in data set [2], 490 µM in data set [3] and 170 µM in data set [4].

B1: Solute carrier family 15 member 1 (Homo sapiens), P46059 (protein)
chain: T1 sequence (P46059 whole entry)
The Km is the concentration of substrate that gives half-maximal velocity. B1: the values for the Km in data set [5] and in data set [6] were 450 µM and 510 µM, respectively.

B2: Solute carrier family 15 member 2 (Rattus norvegicus), Q63424 (protein)
chain: T2 sequence (Q63424 whole entry)
As to B2, the results for the Km in data set [7] and in data set [8] were 67 µM and 70 µM, respectively.

The record behind these values is ChEMBL document CHEMBL2074245, “Valacyclovir: a substrate for the intestinal and renal peptide transporters PEPT1 and PEPT2” (Biochem Biophys Res Commun, 1998).
